# The supplement of paper PMC8253809
# How the values were obtained:
# SUDIPGXIX [1] = diffuse intrinsic pontine glioma line; assay: maximal growth inhibition (yFin) relative to DMSO / staurosporine; higher = more efficacious
# Procedure, shortened: (§1)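 Viability readout was CellTiter-Glo luminescence, log2-transformed, normalised per plate to % activity between negative (solvent) and positive control wells, then pooled. This followed a 7-day exposure (3 days for iAstro) at 37 °C, 5% CO2 to a 10-point threefold dilution series (mean top concentration 35 μM), pin-tool delivered in triplicate to patient-derived pHGG/DIPG cell lines and astrocyte controls on 1% Geltrex-coated 384-well plates. Three- and four-parameter log-logistic fits were compared, and the one with the lowest AICc supplied EC50 and maximal response (yFin).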
# HGGX6 [2] = H3.3 G34R paediatric high-grade glioma line; assay: as above
# Procedure, shortened: as §1
# HGGX42 [3] = H3.3 G34R paediatric high-grade glioma line; assay: as above
# Procedure, shortened: as §1
# DIPGX37 [4] = H3.3 K27M diffuse intrinsic pontine glioma line; assay: as above
# Procedure, shortened: as §1
# SUDIPGXXI [5] = diffuse intrinsic pontine glioma line; assay: as above
# Procedure, shortened: as §1
# DIPGX29 = H3.3 K27M diffuse intrinsic pontine glioma line; assay: as above
# Procedure, shortened: as §1
# SUDIPGXIII [6] = diffuse intrinsic pontine glioma line; assay: as above
# Procedure, shortened: as §1
# SUDIPGXVII [7] = diffuse intrinsic pontine glioma line; assay: as above
# Procedure, shortened: as §1
# HABS [8] = astrocyte control; assay: as above
# Procedure, shortened: as §1
# SUDIPGVI = diffuse intrinsic pontine glioma line; assay: as above
# Procedure, shortened: as §1
# HGGX2 [9] = paediatric high-grade glioma line; assay: as above
# Procedure, shortened: as §1
# DIPGX9 [10] = diffuse intrinsic pontine glioma line; assay: as above
# Procedure, shortened: as §1
# HGGX39 [11] = paediatric high-grade glioma line; assay: as above
# Procedure, shortened: as §1
# iAstro [12] = astrocyte control; assay: as above
# Procedure, shortened: as §1
# SUDIPGIV [13] = diffuse intrinsic pontine glioma line; assay: as above
# Procedure, shortened: as §1
# SUDIPGXIX [14] = assay: area under dose-response curve of % growth inhibition (log2 RLU vs DMSO / staurosporine), 1e-11 to 1e-4 M (% x log10 M); higher = more growth inhibition
# Procedure, shortened: (§2)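 Patient-derived pHGG/DIPG cell lines and astrocytes, cultured on 384-well plates with a 1% Geltrex coating, were given a 10-point threefold dilution series (mean top concentration 35 μM) in triplicate for 7 days (iAstro 3 days) at 37 °C, 5% CO2. CellTiter-Glo signal, log2-transformed and normalised per plate to % activity against solvent and positive controls, was fitted with a log-logistic curve or, where the sigmoid fit failed, a smoothing spline. Area under the curve was then computed by the trapezoid rule.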
# HGGX6 [15] = assay: as above
# Procedure, shortened: as §2
# HGGX42 [16] = assay: as above
# Procedure, shortened: as §2
# DIPGX37 [17] = assay: as above
# Procedure, shortened: as §2
# SUDIPGXXI [18] = assay: as above
# Procedure, shortened: as §2
# DIPGX7 [19] = H3.3 K27M diffuse intrinsic pontine glioma line; assay: as above
# Procedure, shortened: as §2
# SUDIPGXIII [20] = assay: as above
# Procedure, shortened: as §2
# SUDIPGXVII [21] = assay: as above
# Procedure, shortened: as §2
# HABS [22] = assay: as above
# Procedure, shortened: as §2
# HGGX2 [23] = assay: as above
# Procedure, shortened: as §2
# DIPGX9 [24] = assay: as above
# Procedure, shortened: as §2
# HGGX39 [25] = assay: as above
# Procedure, shortened: as §2
# iAstro [26] = assay: as above
# Procedure, shortened: as §2
# SUDIPGIV [27] = assay: as above
# Procedure, shortened: as §2
# DIPGX7 [28] = assay: maximal growth inhibition (yFin) relative to DMSO / staurosporine; higher = more efficacious
# Procedure, shortened: as §1
SMILES,maximal growth inhibition (SUDIPGXIX [1]) [%],maximal growth inhibition (HGGX6 [2]) [%],maximal growth inhibition (HGGX42 [3]) [%],maximal growth inhibition (DIPGX37 [4]) [%],maximal growth inhibition (SUDIPGXXI [5]) [%],maximal growth inhibition (DIPGX29) [%],maximal growth inhibition (SUDIPGXIII [6]) [%],maximal growth inhibition (SUDIPGXVII [7]) [%],maximal growth inhibition (HABS [8]) [%],maximal growth inhibition (SUDIPGVI) [%],maximal growth inhibition (HGGX2 [9]) [%],maximal growth inhibition (DIPGX9 [10]) [%],maximal growth inhibition (HGGX39 [11]) [%],maximal growth inhibition (iAstro [12]) [%],maximal growth inhibition (SUDIPGIV [13]) [%],area under dose-response curve (SUDIPGXIX [14]),area under dose-response curve (HGGX6 [15]),area under dose-response curve (HGGX42 [16]),area under dose-response curve (DIPGX37 [17]),area under dose-response curve (SUDIPGXXI [18]),area under dose-response curve (DIPGX7 [19]),area under dose-response curve (SUDIPGXIII [20]),area under dose-response curve (SUDIPGXVII [21]),area under dose-response curve (HABS [22]),area under dose-response curve (HGGX2 [23]),area under dose-response curve (DIPGX9 [24]),area under dose-response curve (HGGX39 [25]),area under dose-response curve (iAstro [26]),area under dose-response curve (SUDIPGIV [27]),maximal growth inhibition (DIPGX7 [28]) [%]
C=CCNC1=C2C[C@@H](C)C[C@H](OC)[C@H](O)[C@@H](C)/C=C(\C)[C@H](OC(N)=O)[C@@H](OC)/C=C\C=C(/C)C(=O)NC(=CC1=O)C2=O [TANESPIMYCIN],92.1,33.9,50.5,104,122,70,73.1,74.7,114,39.8,84.8,108,97.3,39.3,72.4,214,59.6,103,312,223,89.8,80.1,89.8,161,83,309,242,50.9,138,–
COc1cc(F)ccc1-c1ncnc(Nc2cccc(CS(C)(=N)=O)c2)n1 (stereo unspecified),100,84.1,67,76.2,114,78.9,87,94.9,56.8,89.8,57.3,103,68,24.7,97.4,156,121,134,128,226,143,84.4,109,104,100,195,82.1,57.6,156,110
CC(C)C[C@H](NC(=O)[C@H](CCc1ccccc1)NC(=O)CN1CCOCC1)C(=O)N[C@@H](Cc1ccccc1)C(=O)N[C@@H](CC(C)C)C(=O)[C@@]1(C)CO1 [CARFILZOMIB],116,91.3,77,98.9,–,96.2,105,105,108,95.3,97.2,115,107,87.1,98.6,294,217,213,266,649,303,148,249,280,344,343,239,379,320,92
COC1=CC(c2cc3ccccc3[nH]2)=N/C1=C\c1[nH]c(C)cc1C [OBATOCLAX],143,123,119,128,127,126,108,128,128,128,115,131,124,101,131,216,136,196,167,280,219,128,128,138,217,177,165,141,177,129
CN1[C@@H]2CC[C@H]1C[C@@H](OC(=O)c1cc(Cl)cc(Cl)c1)C2 [BEMESETRON],77.2,63.8,86.2,102,104,89.8,–,44.2,20.8,–,49.4,43.8,81.4,36.1,77.1,65.3,73.6,119,137,166,112,8.98,39.9,14.8,64,58.7,85.8,35.7,93.7,90.5
C=CCn1c(=O)c2cnc(Nc3ccc(N4CCN(C)CC4)cc3)nc2n1-c1cccc(C(C)(C)O)n1 [MK-1775],37.7,24.9,34.5,22.2,91.8,39.2,–,25.1,26.7,–,31,41.4,43.8,36.6,46.7,73.8,37.6,53.5,48.9,190,58.4,15,39.4,35.1,83,60,46.4,71.1,96,25
Cc1noc2c1-c1ccccc1C(c1ccc(Cl)cc1)=N[C@H]2CC(N)=O [CPI-0610],127,41.6,80.1,–,116,90.8,–,63.3,72.8,106,69.1,113,109,39,75.1,156,59.4,110,81.3,251,105,13.5,88.9,97.5,98.6,194,110,67,114,116
CCOc1cc(C(C)(C)C)ccc1C1=N[C@@](C)(c2ccc(Cl)cc2)[C@@](C)(c2ccc(Cl)cc2)N1C(=O)N1CCN(CCCS(C)(=O)=O)CC1 [RG7112],113,86.4,94.2,–,115,93.2,61.6,102,108,35.2,101,109,96.2,82.6,55.8,204,61.6,76,169,288,73.2,77.5,91.7,176,77.8,204,82.1,69.8,47.8,70.5
COCC1(CO)C(=O)C2CCN1CC2 (stereo unspecified) [APR-246],96.4,90.1,99.8,111,112,106,97.3,99,–,102,97.9,105,–,90.9,105,74.8,73.1,72,87.7,177,79.7,74.7,87.2,8.03,69.5,94.2,13,82.7,85.3,102
COc1ncc(-c2ccc3nccc(-c4ccnnc4)c3c2)cc1NS(=O)(=O)c1ccc(F)cc1F [OMIPALISIB],108,110,99.4,116,118,105,108,111,101,112,105,104,115,41.1,110,326,193,237,290,366,248,225,251,262,263,366,224,64,245,–
CCN1CCN(Cc2ccc(Nc3ncc(F)c(-c4cc(F)c5nc(C)n(C(C)C)c5c4)n3)nc2)CC1 [ABEMACICLIB],110,69.4,30.7,99.9,96.9,38.4,52.5,61.1,–,48.9,42.3,43.3,84.4,59,76.8,248,127,83.9,255,252,233,109,123,93.8,120,124,193,161,156,110
CCCc1cc(C)[nH]c(=O)c1CNC(=O)c1cc(-c2ccnc(N3CCN(C)CC3)c2)cc2c1cnn2C(C)C [GSK343],125,111,115,122,126,120,87.9,–,69,112,113,123,20.4,66.2,74.3,122,66.3,98.2,99.1,102,71.6,49.9,12.3,56.1,88.2,90.7,12.1,58.3,51.3,114
